*1 amine or outer side, *2 acyl side, *3 side chain or, on linkers, in order; H or OH if unused. Where a SMILES comes first, the peptide text is derived from it. The star is where a group is joined. 5TAMRA = CN(C)c1ccc2c(c1)Oc1cc(N(C)C)ccc1C21OC(=O)c2cc(C(=O)*)ccc21; Cysteamine = C(CS[*:2])N[*:1]
Test: Drug uptake in lysosomes of human HeLa cells transfected with Cerulean-Lamp-1 plasmid at 1 uM after 1 hr by fluorescence microscopy; call rule not given here
Format: ADME, cell-based, Lysosome

| Drug uptake | Structure (SMILES) |
| --- | --- |
| Active | CN(C)c1ccc2c(c1)Oc1cc(N(C)C)ccc1C21OC(=O)c2cc(C(=O)N[C@@H](CCCNC(=N)N)C(=O)N[C@@H](CCCNC(=N)N)C(=O)N[C@@H](CCCNC(=N)N)C(=O)N[C@@H](CCC(N)=O)C(=O)N[C@@H](CCCNC(=N)N)C(=O)N[C@@H](CCCNC(=N)N)C(=O)N[C@@H](CSSCCN)C(=O)N[C@@H](CSSCCN)C(=O)N[C@@H](CCCNC(=N)N)C(=O)NCC(=O)N[C@@H](Cc3ccc(O)cc3)C(=O)O)ccc21 (5TAMRA-RRRQRRC(Cysteamine)C(Cysteamine)RGY-OH) |
| Not Active | CN(C)c1ccc2c(c1)Oc1cc(N(C)C)ccc1C21OC(=O)c2cc(C(=O)N[C@@H](CCCNC(=N)N)C(=O)N[C@@H](CCCNC(=N)N)C(=O)N[C@@H](CCCNC(=N)N)C(=O)N[C@@H](CCC(N)=O)C(=O)N[C@@H](CCCNC(=N)N)C(=O)N[C@@H](CCCNC(=N)N)C(=O)N[C@@H](CSSCCN)C(=O)N[C@@H](CS)C(=O)N[C@@H](CCCNC(=N)N)C(=O)NCC(=O)N[C@@H](Cc3ccc(O)cc3)C(=O)O)ccc21 (5TAMRA-RRRQRRC(Cysteamine)CRGY-OH) |
| Not Active | CN(C)c1ccc2c(c1)Oc1cc(N(C)C)ccc1C21OC(=O)c2cc(C(=O)N[C@@H](CCCNC(=N)N)C(=O)N[C@@H](CCCNC(=N)N)C(=O)N[C@@H](CCCNC(=N)N)C(=O)N[C@@H](CCC(N)=O)C(=O)N[C@@H](CCCNC(=N)N)C(=O)N[C@@H](CCCNC(=N)N)C(=O)N[C@@H](CS)C(=O)N[C@@H](CSSCCN)C(=O)N[C@@H](CCCNC(=N)N)C(=O)NCC(=O)N[C@@H](Cc3ccc(O)cc3)C(=O)O)ccc21 (5TAMRA-RRRQRRCC(Cysteamine)RGY-OH) |
| Not Active | CN(C)c1ccc2c(c1)Oc1cc(N(C)C)ccc1C21OC(=O)c2cc(C(=O)N[C@@H](CCCNC(=N)N)C(=O)N[C@@H](CCCNC(=N)N)C(=O)N[C@@H](CCCNC(=N)N)C(=O)N[C@@H](CCC(N)=O)C(=O)N[C@@H](CCCNC(=N)N)C(=O)N[C@@H](CCCNC(=N)N)C(=O)N[C@@H](CS)C(=O)N[C@@H](CS)C(=O)N[C@@H](CCCNC(=N)N)C(=O)NCC(=O)N[C@@H](Cc3ccc(O)cc3)C(=O)O)ccc21 (5TAMRA-RRRQRRCCRGY-OH) |

From ChEMBL document CHEMBL1268811, “A retro-inverso TAT-like peptide designed to deliver cysteamine to cells” (Bioorg Med Chem Lett, 2010)
